Among the data in US10065926B2, “Use of substituted dihydrooxindolylsulfonamides, or the salts thereof, for increasing the stress tolerance of plants” (BAYER CROPSCIENCE AKTIENGESELLSCHAFT, priority 2013, dated 2018) are ABI1 inhibition values, retold here.

The test concerns the target T1, phosphatase ABI1 via the co-regulator RCAR11/PYR1 (Arabidopsis thaliana, UniProt O49686+P49597).
T1 sequence (P49597 1-434): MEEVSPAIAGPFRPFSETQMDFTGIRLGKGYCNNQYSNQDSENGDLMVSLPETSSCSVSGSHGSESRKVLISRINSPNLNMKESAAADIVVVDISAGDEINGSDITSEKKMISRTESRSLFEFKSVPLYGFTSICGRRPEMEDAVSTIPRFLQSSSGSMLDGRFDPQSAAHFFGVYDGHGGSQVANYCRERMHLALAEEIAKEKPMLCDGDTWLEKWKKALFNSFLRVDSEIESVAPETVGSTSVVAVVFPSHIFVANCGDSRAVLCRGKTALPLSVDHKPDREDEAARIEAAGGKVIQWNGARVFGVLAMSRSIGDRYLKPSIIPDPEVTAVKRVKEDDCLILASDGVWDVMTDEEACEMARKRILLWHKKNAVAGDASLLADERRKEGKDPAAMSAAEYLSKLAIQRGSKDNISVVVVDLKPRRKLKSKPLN
T1 sequence (O49686 1-191): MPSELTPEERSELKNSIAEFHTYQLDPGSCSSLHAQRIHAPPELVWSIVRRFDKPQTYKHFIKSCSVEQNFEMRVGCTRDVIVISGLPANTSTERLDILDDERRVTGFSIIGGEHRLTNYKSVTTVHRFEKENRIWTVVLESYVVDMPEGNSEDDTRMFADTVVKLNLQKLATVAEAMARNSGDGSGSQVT
Description: In vitro inhibition of phosphatase ABI1 via co-regulator RCAR11/PYR1, MUP dephosphorylation, fluorescence. It counts as biochemical. Particulars: at a concentration of 5 mM of the substance in a solution of DMSO and water; 35° C., 20 minutes. The source says:
Effects of the phytohormone abscisic acid (ABA) on the behavior of plants under abiotic stress and the mechanism of action of ABA are described in the literature (cf. Abrams et al., WO97/23441, Cutler, Park et al. Science, 2009, 324, 1068; Grill et al. Science, 2009, 324, 1064; Tanokura et al. Biophysics, 2011, 7, 123; Schroeder et al. Plant J. 2010, 61, 290). Therefore, it is possible with the aid of a suitable in vitro test system to derive a correlation between the action of ABA and the stress response of a plant under abiotic stress. In the event of water deficiency (drought stress), plants form the phytohormone abscisic acid (ABA). This binds, along with a co-regulator (Regulatory Component of ABA-Receptor=RCAR according to Grill et al. Science, 2009, 324, 1064 or PYR/PYL according to Cutler et al. Science, 2009, 324, 1068), to a phosphatase (e.g. ABI1, a type 2C protein phosphatase, also abbreviated to PP2C) and inhibits its activity. […] For the determination of activity, the dephosphorylation of 4-methylumbelliferyl phosphate (MUP) was measured at 460 nm. […]
Enzyme buffer mix and substrate mix were made up 5 minutes prior to the addition and warmed to a temperature of 35° C. […] Finally, a relative fluorescence measurement was made at 35° C. with a BMG Labtech “POLARstar Optima” microplate reader using a 340/10 nm excitation filter and a 460 nm emission filter. […]

Take `CC1=CC(=O)CC(C)(C)[C@@]1(O)/C=C/C(C)=C\C(=O)O` [abscisic acid]: the ABI1 inhibition entry is “++++ (≥90% inhibition)”.
